{"source": "patent US8440675B2", "about": "“Potentiator of radiation therapy” (Taiho Pharmaceutical Co., Ltd., priority 2006, dated 2013)", "assay_type_in_all_cases": "in vivo", "key": {"[1]": {"tested_on": "human lung cancer strain (LC-11)", "assay": "Test Example 4: anti-tumor effect of TAS-102 or FTD with or without X-ray irradiation in LC-11-transplanted nude mice"}, "[2]": {"tested_on": "mouse", "assay": "No observed adverse effect level on peroral administration to a mouse for 14 days", "details": "perorally administered to a mouse for 14 days; TAS-102 dose as reduced to FTD", "protocol": "α,α,α-Trifluorothymidine (hereinafter abbreviated as FTD) and TPI were suspended in a 0.5% (w/v) HPMC solution to adjust their concentrations to 5.0 mg/mL and 2.65 mg/mL, respectively, and the suspension was stirred at room temperature for about 10 minutes. Subsequently, the suspension was ultrasonicated under ice cooling, to thereby prepare a drug liquid with a dose of 50 mg/kg/day (as reduced to FTD). Hereinafter, the drug liquid is referred to as TAS-102. The dose of the TAS-102 liquid is a “no observed adverse effect level” when the liquid is perorally administered to a mouse for 14 days.\nFTD was suspended in a 0.5% (w/v) HPMC solution to adjust their concentrations to 5.0 mg/mL, and the suspension was stirred at room temperature for about 10 minutes. Subsequently, the suspension was ultrasonicated under ice cooling, to thereby prepare a FTD drug liquid with a dose of 50 mg/kg/day. The dose of FTD is a “no observed adverse effect level” when the liquid is perorally administered to a mouse for 14 days."}, "[3]": {"tested_on": "human lung cancer strain (LC-11)", "assay": "Test Example 2: anti-tumor effect of TPI or TUPI with or without X-ray irradiation in LC-11-transplanted nude mice", "details": "for RTV Day 15 / RTV Day 22 / RTV Day 29: mean ± S.D.", "protocol": "(§1) TPI was suspended in a 0.5% (w/v) HPMC solution to adjust the concentration to 1.5 or 5.0 mg/mL, and the suspension was stirred at room temperature for about 10 minutes by means of a stirrer. Subsequently, the suspension was ultrasonicated under ice cooling for about five minutes, to thereby prepare a TPI drug liquid with a dose of 15 mg/kg/day or 50 mg/kg/day.\nas §1, with “5-Chloro-6-aminouracil (hereinafter abbreviated as TUPI) was” for “TPI was”, “to” for “to 1.5 or”, “a TUPI” for “a TPI”, “of” for “of 15 mg/kg/day or”\nBy means of a radiation apparatus (model: MBR-1505R2, product of Hitachi Medical Corp.), mice were irradiated with X-rays under such irradiation conditions that the unit dose to one mouse was adjusted to 2 Gy or 5 Gy, by controlling the distance from the radiation source to the mouse. Specifically, radiation was applied locally to the right femoral region of each mouse where cells of a human tumor strain had been transplanted. In order to avoid systemic irradiation, the mouse was placed in a lead box so that only the right leg was exposed to the radiation.\nThe human lung cancer strain (LC-11) subcutaneously transplanted into the back of a BALB/cA-nu mouse and grown beforehand were removed, cut into small pieces (about 2×2 mm^2) with scissors in physiological saline, and subcutaneously transplanted into the right femoral region of 5- to 6-week-old mice of the same strain with a transplantation needle. The thus-treated mice were bred for adaptation for at least 1 to 2 weeks and divided into a control group, radiation-only groups, drug-only groups, and radiation-drug combination groups, each group consisting of 6 mice, such that the average tumor volume and the standard deviation (S.D.) were equalized to a maximum extent between groups. Then, administration of the drug and irradiation were started. To each of the mice of the groups subjected to drug administration, the aforementioned TPI liquid or TUPI liquid was perorally administered, by means of an oral administration probe, once a day at a dose of 0.1 mL/10 g-body weight for 14 continuous days. The mice of the groups subjected to radiation were irradiated with X-rays at a dose of 2 Gy or 5 Gy through the aforementioned method within about one hour after administration of the TPI liquid or the TUPI liquid on the test day 1 and day 8. To the cancer-bearing mice of the control group (non-radiation/non-drug administration group) and those of the radiation-only groups, only 0.5% HPMC liquid was perorally administered through the same method for 14 continuous days.\nThe tumor volume of each mouse of the above groups, which was calculated by the equation 1 in Test Example 1, was determined before the start of the treatment test, and on day 3, day 5, day 8 (1 week after), day 11, day 15 (after termination of administration, 2 weeks after), day 18, day […], day 25, and day 29 (4 weeks after). A relative tumor volume (RTV) to the tumor volume at the start of the test was obtained for each mouse. […] Then, the average tumor growth inhibition rate (IR: %) with respect to the control group was calculated on day 15, day 22, and day 29 (after termination of the treatment period) in a manner similar to that of Test Example 1."}, "[4]": {"details": "50 mg/kg (as reduced to FTD) p.o. once a day for 14 days + X-ray 2 Gy on day 1 and day 8"}, "[5]": {"details": "50 mg/kg (as reduced to FTD) p.o. once a day for 14 days, no X-ray"}, "[6]": {"details": "50 mg/kg p.o. once a day for 14 days + X-ray 2 Gy on day 1 and day 8"}, "[7]": {"details": "50 mg/kg p.o. once a day for 14 days, no X-ray"}}, "note": "“And” between values parts separate entries of the source, which are not always exact repeats. Equal values may be shown once.", "data": [{"smiles": "O=c1[nH]c(=O)n([C@H]2C[C@H](O)[C@@H](CO)O2)cc1C(F)(F)F", "note": "[FTD, α,α,α-Trifluorothymidine]", "values": [{"measurement": "IR (%) Day 15", "setting": "[1]; [4]", "value": 35.8, "unit": "%"}, {"measurement": "IR (%) Day 22", "setting": "[1]; [4]", "value": 48.6, "unit": "%"}, {"measurement": "IR (%) Day 29", "setting": "[1]; [4]", "value": 58.5, "unit": "%"}, {"measurement": "IR (%) Day 15", "setting": "[1]; [5]", "value": "52% and 51.8%"}, {"measurement": "IR (%) Day 22", "setting": "[1]; [5]", "value": "57% and 57.2%"}, {"measurement": "IR (%) Day 29", "setting": "[1]; [5]", "value": 59, "unit": "%"}, {"measurement": "potentiation of anti-tumor effect of X-ray radiation (in words)", "setting": "[1]; 50 mg/kg + X-ray 2 Gy", "value": "the anti-tumor effect did not increase"}, {"measurement": "no observed adverse effect level", "setting": "[2]", "value": 50, "unit": "mg/kg/day"}]}, {"smiles": "Nc1[nH]c(=O)[nH]c(=O)c1Cl", "note": "[TUPI, 5-Chloro-6-aminouracil, reference compound]", "values": [{"measurement": "IR (%) Day 15", "setting": "[3]; [6]", "value": 36.6, "unit": "%"}, {"measurement": "IR (%) Day 22", "setting": "[3]; [6]", "value": 41.2, "unit": "%"}, {"measurement": "IR (%) Day 29", "setting": "[3]; [6]", "value": 50.2, "unit": "%"}, {"measurement": "RTV Day 15", "setting": "[3]; [6]", "value": "3.2 ± 0.8"}, {"measurement": "RTV Day 22", "setting": "[3]; [6]", "value": "5.3 ± 1.7"}, {"measurement": "RTV Day 29", "setting": "[3]; [6]", "value": "8.8 ± 2.5"}, {"measurement": "IR (%) Day 15", "setting": "[3]; [7]", "value": 12.7, "unit": "%"}, {"measurement": "IR (%) Day 22", "setting": "[3]; [7]", "value": 17.5, "unit": "%"}, {"measurement": "IR (%) Day 29", "setting": "[3]; [7]", "value": 21.4, "unit": "%"}, {"measurement": "RTV Day 15", "setting": "[3]; [7]", "value": "4.4 ± 1.8"}, {"measurement": "RTV Day 22", "setting": "[3]; [7]", "value": "7.4 ± 3.3"}, {"measurement": "RTV Day 29", "setting": "[3]; [7]", "value": "14.0 ± 6.3"}, {"measurement": "anti-tumor effect of the drug singly administered (in words)", "setting": "[3]; 50 mg/kg, no X-ray", "value": "virtually no anti-tumor effect"}, {"measurement": "potentiation of anti-tumor effect of X-ray radiation (in words)", "setting": "[3]; drug + X-ray 2 Gy", "value": "no potentiation of anti-tumor effect was observed"}]}]}
